Assay results reported in US11083717B2, “Compositions and methods for drug sensitization of parasites” (The Texas A&M University System, priority 2015, dated 2021).
Values after ≈ are worked out from the molar mass of the structure shown. Where two headings read alike, the source gives them in different places.

Legend:
[1] = system: Cryptosporidium parvum (CP); test: Cell culture model of Cryptosporidium parvum infection in HCT-8 cells, real-time qRT-PCR; type: cell-based; conditions: Cryptosporidium parvum
How it was run: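 HCT-8 monolayers were infected with C. parvum Iowa oocysts (1.5×10^4/well) for 3 h, then compounds were added after medium exchange and cells were incubated 41 h more (44 h total, 37 °C). Parasite Cp18S rRNA was measured by one-step SYBR qRT-PCR of lysates, normalized to host Hs18S, and % inhibition at the stated µM was derived from a standard curve.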

[2] = in vitro
[3] = system: S. cerevisiae; test: in vitro; conditions: Saccharomyces cerevisiae
[4] = system: human fibroblast; test: in vitro; conditions: human
[5] = biological target: Human ether-a-go-go-related gene (hERG) (Homo sapiens, UniProt Q12809); test: hERG test (potential cardiotoxicity); type: biochemical; conditions: read-out: hERG (Abbvie)
[6] = MCLint in vitro intrinsic clearance, mouse (MLM); type: in vitro ADME
[7] = HCLint in vitro intrinsic clearance, human (HLM); type: in vitro ADME
[8] = Kinetic solubility; type: physicochemical
[9] = Plasma protein binding; type: in vitro ADME; conditions: mouse, mice, read-out: PPB (converted)
[10] = system: Cryptosporidium parvum
Experimental: The anticryptosporidial activity of the in vitro inhibitors was assessed in the IL-12 knockout mouse model that resembles the acute human disease (Ehigiator H N, Romagnoli P, Borgelt K, Fernandez M, McNair N, Secor W E, Mead J R. 2005. Mucosal cytokine and antigen-specific responses to Cryptosporidium parvum in IL-12p40 KO mice. Parasite Immunol. 27: 17-28; Campbell L D, Stewart J N, Mead J R. 2002. Susceptibility to Cryptosporidium parvum infections in cytokine- and chemokine-receptor knockout mice. J. Parasitol. 88:1014-1016). The protocol was approved by the Institutional Animal Care and Use Committees of Emory University, the AtlantaVAMedical Center, and Brandeis University. Mice (6 to 10 per group) were inoculated with 1,000 purified CP oocysts (Iowa isolate, from cattle). Treatment by gavage began 4 h postinfection with either vehicle (5% dimethyl sulfoxide (DMSO) in canola oil), 50-100 mg/kg compound, or 2,000 mg/kg paromomycin. Compounds were given for 7 days, and mice were sacrificed on day 8 (peak infection). Parasite load was quantified by fluorescence-activated cell sorting (FACS) assays for the presence of the oocysts in the feces at days 0, 4, and 7. Fecal pellets from individual mice were routinely collected daily and homogenized in adjusted volumes of 2.5% potassium dichromate. Samples were processed individually. Aliquots (200 ul) of vortexed samples were processed over microscale sucrose gradients as previously described (Arrowood M J, Hurd M R, Mead J R. 1995. A new method for evaluating experimental cryptosporidial parasite loads using immunofluorescent flowcytometry. J. Parasitol. 81:404-409). The oocyst-containing fraction was collected, washed, and treated with monoclonal antibody (OW5O-FITC) for 20 min. Samples were adjusted to 600 ul, and a portion (100 ul) was assayed with a 102-s sampling interval using logical gating of forward/side scatter and OW5O-FITC fluorescence signal on a Becton, Dickinson FACScan flow cytometer. Flow cytometry data were evaluated by analysis of variance (KaleidaGraph (Synergy Software, Reading Pa.); Microsoft Excel (Microsoft Corporation, Redmond, Wash.)).
NZ-366 (50 mg/kg) and NZ-369 (100 mg/kg) were administered via gavage in a single daily dose to IL-12 knockout mice that were infected with 1,000 CP oocysts. Additional control groups included those treated with single daily doses of vehicle, and paromomycin (Prm) (2,000 mg/kg), by oral gavage.

[11] = biological target: hERG (Homo sapiens, UniProt Q12809); test: hERG test (potential cardiotoxicity); type: biochemical; conditions: human; read-out: hERG (Abbvie)
[12] = 44 h, CP in HCT-8 cells, 44 h infection, 50% reduction of parasite growth vs control, NA: not active, read-out: MIC50
[13] = NZ-366 50 mg/kg, NZ-369 100 mg/kg, paromomycin 2,000 mg/kg

Chain of Human ether-a-go-go-related gene (hERG) (Q12809 whole entry): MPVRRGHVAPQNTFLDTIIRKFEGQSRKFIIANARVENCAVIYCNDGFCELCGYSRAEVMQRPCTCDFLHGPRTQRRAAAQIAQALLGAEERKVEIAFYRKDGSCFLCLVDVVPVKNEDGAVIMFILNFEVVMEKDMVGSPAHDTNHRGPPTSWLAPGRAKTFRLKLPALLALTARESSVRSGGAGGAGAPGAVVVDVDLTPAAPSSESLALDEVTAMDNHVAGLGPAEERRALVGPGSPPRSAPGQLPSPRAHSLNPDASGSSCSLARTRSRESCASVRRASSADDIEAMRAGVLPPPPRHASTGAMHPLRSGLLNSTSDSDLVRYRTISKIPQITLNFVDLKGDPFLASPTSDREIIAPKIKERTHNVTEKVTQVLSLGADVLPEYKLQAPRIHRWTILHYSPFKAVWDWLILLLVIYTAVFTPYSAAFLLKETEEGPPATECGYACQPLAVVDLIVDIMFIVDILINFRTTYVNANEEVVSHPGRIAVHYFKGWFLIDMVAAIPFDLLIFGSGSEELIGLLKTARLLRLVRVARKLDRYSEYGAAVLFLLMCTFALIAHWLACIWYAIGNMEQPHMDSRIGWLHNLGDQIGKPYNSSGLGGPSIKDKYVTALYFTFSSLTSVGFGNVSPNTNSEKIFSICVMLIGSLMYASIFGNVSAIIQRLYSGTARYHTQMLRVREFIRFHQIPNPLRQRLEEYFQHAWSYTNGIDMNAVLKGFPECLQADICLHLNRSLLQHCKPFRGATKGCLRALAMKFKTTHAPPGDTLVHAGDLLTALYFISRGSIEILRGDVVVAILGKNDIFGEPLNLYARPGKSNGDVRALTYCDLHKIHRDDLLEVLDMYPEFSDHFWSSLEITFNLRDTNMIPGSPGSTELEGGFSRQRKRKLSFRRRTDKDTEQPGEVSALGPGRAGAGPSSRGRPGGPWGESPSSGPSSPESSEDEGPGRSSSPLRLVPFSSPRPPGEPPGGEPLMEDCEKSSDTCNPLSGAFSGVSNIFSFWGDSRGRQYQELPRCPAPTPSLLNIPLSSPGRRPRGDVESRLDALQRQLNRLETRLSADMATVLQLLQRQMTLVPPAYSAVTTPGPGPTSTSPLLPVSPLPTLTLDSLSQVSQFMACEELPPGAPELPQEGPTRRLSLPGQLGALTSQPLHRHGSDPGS
Chain of hERG (Q12809 whole entry): as above

CC(C(=O)N1CCN(C)CC1)c1ccc(Oc2nc3ccc(Cl)cc3s2)cc1 (stereo not drawn) [NZ-366, 2-{4-[(6-chloro-1,3-benzothiazol-2-yl)oxy]phenyl}-1-(4-methylpiperazin-1-yl)propan-1-one]
MIC50 [1, 12]: 50 nM (≈ 0.0208 µg/mL) | MIC50 ([1]; read-out: MIC50 (nM) (CP)): 50 nM (≈ 0.0208 µg/mL) | IC50 ([2]; Saccharomyces cerevisiae): 80 µM | IC50 ([2]; human): 48 µM | concentrations at which not toxic, S. cerevisiae cytotoxicity testing [3]: 25 to 50 µM | concentrations at which not toxic, human fibroblast cytotoxicity testing [4]: 25 to 50 µM | IC50 [5]: 2.4 µM | MCLint (mL/min/g liver), MLM [6]: MLM = 41 mL/min/g liver | HCLint (mL/min/g liver), HLM [7]: HLM = 7.9 mL/min/g liver | Kinetic Sol. [8]: 62 µM | fraction unbound [9]: 0.019 | Mouse Model (Mead) DPI7 ([10]; @50 mg/kg, day 7 post infection): DPI7 = 59% | overt toxicity in the treated infected mice ([10]; NZ-366 50 mg/kg, NZ-369 100 mg/kg, 7 days): no overt toxicity | anticryptosporidial activity, fecal oocysts day 7 post infection ([10]; NZ-366 50 mg/kg, NZ-369 100 mg/kg, gavage, single daily dose, FIG. 1): have anticryptosporidial activity | effectiveness compared with paromomycin after a single dose [10, 13]: more effective than paromomycin | effectiveness compared with paromomycin over the course of the study [10, 13]: equally as effective as paromomycin

CC(C(=O)NCCO)c1ccc(Oc2nc3ccc(Cl)cc3s2)cc1 (stereo not drawn) [NZ-370, 2-{4-[(6-chloro-1,3-benzothiazol-2-yl)oxy]phenyl}-N-(2-hydroxyethyl)propanamide]
MIC50 [1, 12]: 50 to 60 nM (≈ 0.0188 to 0.0226 µg/mL) | MIC50 ([1]; read-out: MIC50 (nM) (CP)): 50 to 60 nM (≈ 0.0188 to 0.0226 µg/mL) | IC50 ([2]; Saccharomyces cerevisiae): > 100 µM | IC50 ([2]; human): > 100 µM | concentrations at which not toxic, S. cerevisiae cytotoxicity testing [3]: ≥ 100 µM | concentrations at which not toxic, human fibroblast cytotoxicity testing [4]: ≥ 100 µM | IC50 [11]: 30 µM | Kinetic Sol. [8]: 40 µM
